The assay deals with P388 leukemia ip, CD2F1 mice, survival T/C. Briefly: NCI In Vivo Anticancer Drug Screen. Data for tumor model P388 Leukemia (intraperitoneal) in CD2F1 (CDF1) mice. Particulars: endpoint: median survival time, higher = longer survival. An outline of the steps:
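Mice carrying the transplanted tumor received test compound or vehicle. Survival was recorded in each group, and the value is the treated-group measurement divided by that of the vehicle-treated control group.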

Setting [1] is: dose: 100.0 mg/kg/injection, schedule: Q04DX003 (ip), vehicle: saline.
The mark [2] stands for this setting: dose: 100.0 mg/kg/injection, schedule: Q04DX003 (ip), vehicle: saline with Tween-80.
[3] abbreviates: dose: 200.0 mg/kg/injection, schedule: Q04DX003 (ip), vehicle: saline with Tween-80.
The mark [4] stands for this setting: dose: 100.0 mg/kg/injection, schedule: Q01DX009 (ip), vehicle: saline with Tween-80.
The mark [5] stands for this setting: dose: 200.0 mg/kg/injection, schedule: Q01DX009 (ip), vehicle: saline with Tween-80.
Setting [6] is: dose: 50.0 mg/kg/injection, schedule: Q01DX009 (ip), vehicle: saline.
The mark [7] stands for this setting: dose: 100.0 mg/kg/injection, schedule: Q01DX009 (ip), vehicle: saline.
Setting [8] is: dose: 50.0 mg/kg/injection, schedule: Q01DX005 (ip), vehicle: saline with Tween-80.
The mark [9] stands for this setting: dose: 100.0 mg/kg/injection, schedule: Q01DX005 (ip), vehicle: saline with Tween-80.
Where [10] appears, read: dose: 200.0 mg/kg/injection, schedule: Q01DX005 (ip), vehicle: saline with Tween-80.
[11] abbreviates: dose: 50.0 mg/kg/injection, schedule: Q01DX009 (ip), vehicle: Klucel (hydroxypropylcellulose) (HPC).
Where [12] appears, read: dose: 100.0 mg/kg/injection, schedule: Q01DX009 (ip), vehicle: Klucel (hydroxypropylcellulose) (HPC).
The mark [13] stands for this setting: dose: 60.0 mg/kg/injection, schedule: Q01DX005 (ip), vehicle: saline with Tween-80.
[14] abbreviates: dose: 120.0 mg/kg/injection, schedule: Q01DX005 (ip), vehicle: saline with Tween-80.
The mark [15] stands for this setting: dose: 240.0 mg/kg/injection, schedule: Q01DX005 (ip), vehicle: saline with Tween-80.
Setting [16] is: dose: 200.0 mg/kg/injection, schedule: Q01DX009 (ip), vehicle: Klucel (hydroxypropylcellulose) (HPC).

T/C data for 22 compounds are collected here from PubChem BioAssay AID330 (DTP/NCI, 2004).

Where “and” joins values, the source holds several entries; their conditions need not be identical. Identical values can stand only once. Inconclusive results and toxic doses are left out.

As to `CC1CCC(C(C)C)C(N)C1` (centres undefined), the T/C is 100 % of control (dose: 25.0 mg/kg/injection, schedule: Q04DX002 (ip), vehicle: suspension in saline); 93 % of control (dose: 50.0 mg/kg/injection, schedule: Q04DX002 (ip), vehicle: suspension in saline); 89 % of control (dose: 100.0 mg/kg/injection, schedule: Q04DX002 (ip), vehicle: saline with Tween-80); 102 % of control (dose: 100.0 mg/kg/injection, schedule: Q04DX002 (ip), vehicle: suspension in saline).
Regarding `O=NN(CCBr)C(=O)Nc1ccccc1`, the T/C was 154 % of control (dose: 6.0 mg/kg/injection, schedule: Q01DX009 (ip), vehicle: saline with Tween-80); 177 % of control (dose: 12.0 mg/kg/injection, schedule: Q01DX009 (ip), vehicle: saline with Tween-80); 177 % of control (dose: 25.0 mg/kg/injection, schedule: Q01DX009 (ip), vehicle: saline with Tween-80); 175 % of control (dose: 37.5 mg/kg/injection, schedule: Q01DX009 (ip), vehicle: saline with Tween-80); 118 % of control (dose: 66.0 mg/kg/injection, schedule: Q04DX003 (ip), vehicle: saline); 109 % of control under setting [1]. Further, the T/C (dose: 150.0 mg/kg/injection, schedule: Q04DX003 (ip), vehicle: saline) is 100 % of control.
`Cn1c2ccccc2c(=O)c2c(O)cc3c(c21)CC(C1(C)CO1)O3` (centres undefined): the T/C is 99 % of control (dose: 2.0 mg/kg/injection, schedule: Q01DX005 (ip), vehicle: Klucel (hydroxypropylcellulose) (HPC)); 105 % of control and 107 % of control (dose: 4.0 mg/kg/injection, schedule: Q01DX005 (ip), vehicle: Klucel (hydroxypropylcellulose) (HPC)); 103 % of control and 107 % of control (dose: 8.0 mg/kg/injection, schedule: Q01DX005 (ip), vehicle: Klucel (hydroxypropylcellulose) (HPC)); 108 % of control and 116 % of control (dose: 16.0 mg/kg/injection, schedule: Q01DX005 (ip), vehicle: Klucel (hydroxypropylcellulose) (HPC)).
As to `N=C(N)SCc1ccc(C(=O)Oc2ccc([N+](=O)[O-])cc2)cc1`, the T/C is 100 % of control under setting [2] and 104 % of control under setting [3].
Turning to `C=C1[C@@H]2CC[C@@]3([C@@H](C2)[C@@]24CCC[C@@]5(C)CN(CCO)[C@@H]2O[C@@H]3C[C@H]54)[C@@H]1O`, the T/C was 97 % of control (dose: 2.0 mg/kg/injection, schedule: Q01DX009 (ip), vehicle: Klucel (hydroxypropylcellulose) (HPC)); 97 % of control (dose: 4.0 mg/kg/injection, schedule: Q01DX009 (ip), vehicle: Klucel (hydroxypropylcellulose) (HPC)); 98 % of control (dose: 8.0 mg/kg/injection, schedule: Q01DX009 (ip), vehicle: Klucel (hydroxypropylcellulose) (HPC)); 94 % of control (dose: 16.0 mg/kg/injection, schedule: Q01DX009 (ip), vehicle: Klucel (hydroxypropylcellulose) (HPC)).
Consider `Nc1c(CNCc2nnn(Cc3ccccc3)c2N)nnn1Cc1ccccc1`, for which the T/C is, setting by setting: (dose: 50.0 mg/kg/injection, schedule: Q01DX009 (ip), vehicle: saline with Tween-80) 96 % of control; under setting [4], 93 % of control; under setting [5], 93 % of control.
In the case of `ONc1ccccc1C(F)(F)F`, the T/C was 97 % of control under setting [6] and 95 % of control under setting [7].
Take `Cc1nn(C)c(=O)[nH]c1=O`: the T/C reads like this: under setting [8], 103 % of control; under setting [9], 106 % of control; under setting [10], 106 % of control.
`Oc1cc2c(cc1C(c1ccc(Cl)cc1)N1CCN(C(c3ccc(Cl)cc3)c3cc4c(cc3O)OCO4)CC1)OCO2` (centres undefined): the T/C by setting is: (dose: 60.0 mg/kg/injection, schedule: Q01DX005 (ip), vehicle: Klucel (hydroxypropylcellulose) (HPC)) 89 % of control; (dose: 120.0 mg/kg/injection, schedule: Q01DX005 (ip), vehicle: Klucel (hydroxypropylcellulose) (HPC)) 88 % of control.
In the case of `COC(=O)NN(C(=O)OC)C12CCCCC1N(C(=O)OC)N(C(=O)OC)c1ccccc12` (centres undefined), the T/C (dose: 100.0 mg/kg/injection, schedule: Q01DX001 (ip), vehicle: Klucel (hydroxypropylcellulose) (HPC)) is 103 % of control; the T/C (dose: 200.0 mg/kg/injection, schedule: Q01DX001 (ip), vehicle: Klucel (hydroxypropylcellulose) (HPC)) is 98 % of control; the T/C (dose: 400.0 mg/kg/injection, schedule: Q01DX001 (ip), vehicle: Klucel (hydroxypropylcellulose) (HPC)) was 100 % of control.
Turning to `CCN(CC)Cc1c(C)[nH]c2cc(N(C)C)ccc2c1=O`, the T/C is 96 % of control under setting [11] and 97 % of control under setting [12].
On to `COc1ccc2cc(N3CCCC3)ccc2c1`, for which the T/C is, setting by setting: (dose: 25.0 mg/kg/injection, schedule: Q04DX003 (ip), vehicle: saline) 105 % of control; (dose: 50.0 mg/kg/injection, schedule: Q04DX003 (ip), vehicle: saline) 96 % of control; under setting [1], 100 % of control and 104 % of control; (dose: 400.0 mg/kg/injection, schedule: Q04DX003 (ip), vehicle: saline) 107 % of control.
As to `O=C1Nc2cccnc2NC2=C1CSC2`, the T/C reads like this: under setting [13], 110 % of control; under setting [14], 97 % of control; under setting [15], 98 % of control.
`COC(=O)C12CC3CC(CC(NC(=O)C(Cc4ccccc4)NC(=O)CN)(C3)C1)C2` (centres undefined): the T/C is 94 % of control (dose: 60.0 mg/kg/injection, schedule: Q01DX005 (ip), vehicle: saline); 99 % of control (dose: 120.0 mg/kg/injection, schedule: Q01DX005 (ip), vehicle: saline); 94 % of control (dose: 240.0 mg/kg/injection, schedule: Q01DX005 (ip), vehicle: saline).
For `O=C1NC(=O)C(Cc2ccccc2)(Cc2ccccc2)C(=O)N1`, the T/C under setting [4] is 90 % of control; the T/C under setting [2] was 110 % of control; the T/C under setting [5] was 95 % of control; the T/C under setting [3] is 100 % of control; the T/C (dose: 400.0 mg/kg/injection, schedule: Q01DX009 (ip), vehicle: saline with Tween-80) was 95 % of control; the T/C (dose: 400.0 mg/kg/injection, schedule: Q04DX003 (ip), vehicle: saline with Tween-80) is 110 % of control.
On to `Nc1cc2nc3ccccc3nc2cc1O`, for which the T/C reads like this: under setting [8], 90 % of control; under setting [9], 90 % of control; under setting [10], 90 % of control.
`Cc1cccc(N=Nc2ccc(N=Nc3c(O)ccc4ccccc34)cc2C)c1`: the T/C was 97 % of control under setting [11], 100 % of control under setting [12] and 100 % of control under setting [16].
Regarding `N#CCC1(C#N)CCC(OCc2ccccc2)CC1` (centres undefined), the T/C was 100 % of control and 99 % of control under setting [6]; 100 % of control under setting [7]; 102 % of control and 101 % of control (dose: 200.0 mg/kg/injection, schedule: Q01DX009 (ip), vehicle: saline).
For the compound `CC(C)(Oc1ccc(-c2cccc3ccccc23)cc1)C(=O)O`, the T/C runs as follows: (dose: 6.25 mg/kg/injection, schedule: Q01DX009 (ip), vehicle: Klucel (hydroxypropylcellulose) (HPC)) 97 % of control; (dose: 12.5 mg/kg/injection, schedule: Q01DX009 (ip), vehicle: Klucel (hydroxypropylcellulose) (HPC)) 95 % of control; (dose: 25.0 mg/kg/injection, schedule: Q01DX009 (ip), vehicle: Klucel (hydroxypropylcellulose) (HPC)) 101 % of control; under setting [12], 111 % of control; under setting [16], 119 % of control.
Regarding `COc1cc(COC(=O)c2ccc(CSc3ccc(Cl)cc3)o2)cc(OC)c1OC`, the T/C under setting [8] was 99 % of control and the T/C under setting [9] is 99 % of control.
With `O=C(O)CCC(NC(=O)c1ccc(N(CCCO)CC2CNc3nc(NCCCO)[nH]c(=O)c3N2CCCO)cc1)C(=O)O` (centres undefined), the T/C is 98 % of control (dose: 50.0 mg/kg/injection, schedule: Q04DX003 (ip), vehicle: alkali diluted with saline); 109 % of control (dose: 100.0 mg/kg/injection, schedule: Q04DX003 (ip), vehicle: alkali diluted with saline); 98 % of control (dose: 200.0 mg/kg/injection, schedule: Q04DX003 (ip), vehicle: alkali diluted with saline).
Regarding `COc1ccc(C(c2cc3c(cc2O)OCO3)N2CCOCC2)c(OC)c1OC` (centres undefined), the T/C reads like this: under setting [13], 119 % of control; under setting [14], 109 % of control; under setting [15], 115 % of control.
